# According to patent US6525001B1, “Substituted pyrimidine and pyridine herbicides” (Mid-American Commercialization Corporation, priority 1997, dated 2003):
# What was measured:
# Format in all cases: in vivo
# Design in all cases: key: 0 is no effect; 10 is complete control
# [1] = test system: smallflower flatsedge (Cyperus difformis); assay: Test B flood test
# How it was run: (§1)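 Flood test on plants grown to the 2-leaf stage; treated plants kept in greenhouse twelve to sixteen days, then visually rated against controls on a 0 (no effect) to 10 (complete control) scale.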
# [2] = test system: bamyardgrass (Echinochloa crus-galli); assay: Test B flood test
# How it was run: as §1
# rice (Oryza sativa) = assay: Test B flood test
# How it was run: as §1
# [3] = test system: duck salad (Heteranthera limosa); assay: Test B flood test
# How it was run: as §1
# [4] = test system: bedstraw (Galium aparine); assay: Test B pre-/postemergence; settings: for Plant response rating, Bedstraw: Postemergence; for Bedstraw plant response rating: Preemergence
# Description: (§2) Seeds of bedstraw (Galium aparine), blackgrass (Alopecurus myosuroides), broadleaf signalgrass (Brachiaria decumbens), cocklebur (Xanthium strumarium), corn (Zea mays), crabgrass (Digitaria sanguinalis), giant foxtail (Setaria faberii), lambsquarters (Chenopodium album), momingglory (Ipomoea hederacea), pigweed (Amaranthus retroflexus), rape (Brassica napus), soybean (Glycine max), sugar beet (Beta vulgaris), velvetleaf (Abutilon theophrasti), wheat (Triticum aestivum), wild oat (Avena fatua) and purple nutsedge (Cyperus rotundus) tubers were planted and treated preemergence with test chemicals formulated in a non-phytotoxic solvent mixture which included a surfactant.
# (§3) At the same time, these crop and weed species were also treated with postemergence applications of test chemicals formulated in the same manner. Plants ranged in height from 2 to 18 cm (1- to 4-leaf stage) for postemergence treatments. Plant species in the flood test consisted of rice (Oryza sativa), smallflower flatsedge (Cyperus difformis), duck salad (Heteranthera limosa) and bamyardgrass (Echinochloa crus-galli) grown to the 2-leaf stage for testing. Treated plants and controls were maintained in a greenhouse for twelve to sixteen days, after which all species were compared to controls and visually evaluated. Plant response ratings, summarized in Table B, are based on a scale of 0 to 10 where 0 is no effect and 10 is complete control. A dash (−) response means no test result.
# [5] = test system: giant foxtail (Setaria faberii); assay: Test B pre-/postemergence
# Description: as §2, §3
# [6] = test system: purple nutsedge (Cyperus rotundus); assay: Test B pre-/postemergence; settings: for Nutsedge plant response rating: Preemergence
# Description: as §2, §3
# [7] = test system: cocklebur (Xanthium strumarium); assay: Test B pre-/postemergence; settings: for Plant response rating, Cocklebur: Postemergence
# Description: as §2, §3
# corn (Zea mays) = assay: Test B pre-/postemergence; settings: for Corn plant response rating: Preemergence
# Description: as §2, §3
# [8] = test system: broadleaf signalgrass (Brachiaria decumbens); assay: Test B pre-/postemergence; settings: for B. signalgrass plant response rating: Preemergence
# Description: as §2, §3
# wild oat (Avena fatua) = assay: Test B pre-/postemergence
# Description: as §2, §3
# [9] = test system: velvetleaf (Abutilon theophrasti); assay: Test B pre-/postemergence
# Description: as §2, §3
# [10] = test system: crabgrass (Digitaria sanguinalis); assay: Test B pre-/postemergence; settings: for Crabgrass plant response rating: Preemergence
# Description: as §2, §3
# [11] = test system: momingglory (Ipomoea hederacea); assay: Test B pre-/postemergence
# Description: as §2, §3
# rape (Brassica napus) = assay: Test B pre-/postemergence
# Description: as §2, §3
# [12] = test system: sugar beet (Beta vulgaris); assay: Test B pre-/postemergence
# Description: as §2, §3
# [13] = test system: blackgrass (Alopecurus myosuroides); assay: Test B pre-/postemergence; settings: for Blackgrass plant response rating: Preemergence
# Description: as §2, §3
# [14] = test system: pigweed (Amaranthus retroflexus); assay: Test B pre-/postemergence
# Description: as §2, §3
# soybean (Glycine max) = assay: Test B pre-/postemergence
# Description: as §2, §3
# [15] = test system: wheat (Triticum aestivum); assay: Test B pre-/postemergence
# Description: as §2, §3
# [16] = Rate 62 g/ha, Postemergence (flood test)
# [17] = Rate 125 g/ha, Postemergence section (flood test species)
# [18] = Rate 250 g/ha, Postemergence (flood test species)
# [19] = Rate 125 g/ha, Postemergence, flood test
# [20] = Rate 250 g/ha, Postemergence (so in the source)
structure (smiles),measurement,setting,value
Cc1cnc(-c2ccc(Cl)c(Cl)c2)nc1Cc1cccc(C(F)(F)F)c1 [Compound 27],"Plant response rating, S. Flatsedge",[1]; [16],5
same,S. Flatsedge plant response rating,[1]; [17],5
same,"Plant response rating, S. Flatsedge",[1]; [18],5
same,"Plant response rating, Barnyardgrass",[2]; [16],1
same,"Plant response rating, Barnyardgrass",[2]; [19],2
same,"Plant response rating, Barnyardgrass",[2]; [18],3
same,"Plant response rating, Rice",rice (Oryza sativa); [16],0
same,Rice plant response rating,rice (Oryza sativa); [17],1
same,"Plant response rating, Rice",rice (Oryza sativa); [18],1
same,"Plant response rating, Ducksalad",[3]; [16],0
same,"Plant response rating, Ducksalad",[3]; [19],1
same,"Plant response rating, Ducksalad",[3]; [18],2
same,"Plant response rating, Bedstraw",[4]; Rate 62 g/ha,8
same,Bedstraw plant response rating,[4]; Rate 62 g/ha,0
same,"Plant response rating, Bedstraw",[4]; Rate 125 g/ha,9
same,Bedstraw plant response rating,[4]; Rate 125 g/ha,0
same,"Plant response rating, Bedstraw",[4]; Rate 250 g/ha,9
same,"Plant response rating, Giant foxtail","[5]; Rate 62 g/ha, Postemergence",3
same,Giant foxtail plant response rating,"[5]; Rate 62 g/ha, Preemergence",2
same,Giant foxtail plant response rating,"[5]; Rate 125 g/ha, Postemergence",4
same,Giant foxtail plant response rating,"[5]; Rate 125 g/ha, Preemergence",5
same,"Plant response rating, Giant foxtail","[5]; Rate 250 g/ha, Postemergence",4
same,"Plant response rating, Giant foxtail",[5]; [20],9
same,"Plant response rating, Nutsedge","[6]; Rate 62 g/ha, Postemergence",2
same,Nutsedge plant response rating,[6]; Rate 62 g/ha,0
same,Nutsedge plant response rating,[6]; Rate 125 g/ha,0
same,"Plant response rating, Nutsedge",[6]; [20],0
same,"Plant response rating, Cocklebur",[7]; Rate 62 g/ha,7
same,Cocklebur plant response rating,"[7]; Rate 62 g/ha, Preemergence",0
same,"Plant response rating, Cocklebur",[7]; Rate 125 g/ha,7
same,"Plant response rating, Cocklebur",[7]; Rate 250 g/ha,9
same,"Plant response rating, Corn","corn (Zea mays); Rate 62 g/ha, Postemergence",2
same,Corn plant response rating,corn (Zea mays); Rate 62 g/ha,0
same,"Plant response rating, Corn","corn (Zea mays); Rate 125 g/ha, Postemergence",3
same,Corn plant response rating,corn (Zea mays); Rate 125 g/ha,0
same,"Plant response rating, Corn","corn (Zea mays); Rate 250 g/ha, Postemergence",3
same,"Plant response rating, Corn",corn (Zea mays); [20],0
same,"Plant response rating, B. signalgrass","[8]; Rate 62 g/ha, Postemergence",3
same,B. signalgrass plant response rating,[8]; Rate 62 g/ha,0
same,"Plant response rating, B. signalgrass","[8]; Rate 125 g/ha, Postemergence",5
same,B. signalgrass plant response rating,[8]; Rate 125 g/ha,1
same,"Plant response rating, B. signalgrass","[8]; Rate 250 g/ha, Postemergence",5
same,"Plant response rating, B. signalgrass","[8]; Rate 250 g/ha, Postemergence as printed in head r139 (second section for compounds 26-50)",3
same,"Plant response rating, Wild oats","wild oat (Avena fatua); Rate 62 g/ha, Postemergence",3
same,Wild oats plant response rating,"wild oat (Avena fatua); Rate 62 g/ha, Preemergence",0
same,Wild oats plant response rating,"wild oat (Avena fatua); Rate 125 g/ha, Postemergence",4
same,"Plant response rating, Wild oats","wild oat (Avena fatua); Rate 125 g/ha, Preemergence",1
same,"Plant response rating, Wild oats","wild oat (Avena fatua); Rate 250 g/ha, Postemergence",5
same,"Plant response rating, Wild oats",wild oat (Avena fatua); [20],3
same,"Plant response rating, Velvetleaf","[9]; Rate 62 g/ha, Postemergence",5
same,Velvetleaf plant response rating,"[9]; Rate 62 g/ha, Preemergence",0
same,Velvetleaf plant response rating,"[9]; Rate 125 g/ha, Postemergence",7
same,"Plant response rating, Velvetleaf","[9]; Rate 125 g/ha, Preemergence",0
same,"Plant response rating, Velvetleaf","[9]; Rate 250 g/ha, Postemergence",7
same,"Plant response rating, Velvetleaf",[9]; [20],1
same,"Plant response rating, Crabgrass","[10]; Rate 62 g/ha, Postemergence",3
same,Crabgrass plant response rating,[10]; Rate 62 g/ha,1
same,"Plant response rating, Crabgrass","[10]; Rate 125 g/ha, Postemergence",4
same,Crabgrass plant response rating,[10]; Rate 125 g/ha,2
same,"Plant response rating, Crabgrass","[10]; Rate 250 g/ha, Postemergence",6
same,"Plant response rating, Crabgrass",[10]; [20],5
same,"Plant response rating, Morningglory","[11]; Rate 62 g/ha, Postemergence",5
same,Morningglory plant response rating,"[11]; Rate 62 g/ha, Preemergence",1
same,Morningglory plant response rating,"[11]; Rate 125 g/ha, Postemergence",8
same,Morningglory plant response rating,"[11]; Rate 125 g/ha, Preemergence",2
same,"Plant response rating, Morningglory","[11]; Rate 250 g/ha, Postemergence",8
same,"Plant response rating, Morningglory",[11]; [20],2
same,"Plant response rating, Rape","rape (Brassica napus); Rate 62 g/ha, Postemergence",8
same,Rape plant response rating,"rape (Brassica napus); Rate 62 g/ha, Preemergence",1
same,Rape plant response rating,"rape (Brassica napus); Rate 125 g/ha, Postemergence",8
same,Rape plant response rating,"rape (Brassica napus); Rate 125 g/ha, Preemergence",2
same,"Plant response rating, Rape","rape (Brassica napus); Rate 250 g/ha, Postemergence",9
same,"Plant response rating, Rape",rape (Brassica napus); [20],3
same,"Plant response rating, Sugarbeets","[12]; Rate 62 g/ha, Postemergence",9
same,Sugarbeets plant response rating,"[12]; Rate 62 g/ha, Preemergence",0
same,Sugarbeets plant response rating,"[12]; Rate 125 g/ha, Postemergence",9
same,"Plant response rating, Sugarbeets","[12]; Rate 125 g/ha, Preemergence",1
same,"Plant response rating, Sugarbeets","[12]; Rate 250 g/ha, Postemergence",10
same,"Plant response rating, Sugarbeets",[12]; [20],8
same,"Plant response rating, Blackgrass","[13]; Rate 62 g/ha, Postemergence",4
same,Blackgrass plant response rating,[13]; Rate 62 g/ha,0
same,"Plant response rating, Blackgrass","[13]; Rate 125 g/ha, Postemergence",4
same,Blackgrass plant response rating,[13]; Rate 125 g/ha,2
same,"Plant response rating, Blackgrass","[13]; Rate 250 g/ha, Postemergence",5
same,"Plant response rating, Blackgrass",[13]; [20],4
same,"Plant response rating, Redroot pigweed","[14]; Rate 62 g/ha, Postemergence",7
same,Redroot pigweed plant response rating,"[14]; Rate 62 g/ha, Preemergence",2
same,Redroot pigweed plant response rating,"[14]; Rate 125 g/ha, Postemergence",9
same,Redroot pigweed plant response rating,"[14]; Rate 125 g/ha, Preemergence",6
same,"Plant response rating, Redroot pigweed","[14]; Rate 250 g/ha, Postemergence",10
same,"Plant response rating, Redroot pigweed",[14]; [20],7
same,"Plant response rating, Soybean","soybean (Glycine max); Rate 62 g/ha, Postemergence",5
same,Soybean plant response rating,"soybean (Glycine max); Rate 62 g/ha, Preemergence",0
same,Soybean plant response rating,"soybean (Glycine max); Rate 125 g/ha, Postemergence",5
same,"Plant response rating, Soybean","soybean (Glycine max); Rate 125 g/ha, Preemergence",0
same,"Plant response rating, Soybean","soybean (Glycine max); Rate 250 g/ha, Postemergence",7
same,"Plant response rating, Soybean",soybean (Glycine max); [20],0
same,"Plant response rating, Wheat","[15]; Rate 62 g/ha, Postemergence",3
same,Wheat plant response rating,"[15]; Rate 62 g/ha, Preemergence",0
same,Wheat plant response rating,"[15]; Rate 125 g/ha, Postemergence",4
same,"Plant response rating, Wheat","[15]; Rate 125 g/ha, Preemergence",0
same,"Plant response rating, Wheat","[15]; Rate 250 g/ha, Postemergence",4
same,"Plant response rating, Wheat",[15]; [20],1
